*1 amine or outer side, *2 acyl side, *3 side chain or, on linkers, in order; H or OH if unused. Where a SMILES comes first, the peptide text is derived from it. Side-chain parts run from the residue outwards. [ ]: non-standard residue; d: D form. The star is where a group is joined. C18 diacid = O=C(O)CCCCCCCCCCCCCCCCC(=O)*; C16 diacid = O=C(O)CCCCCCCCCCCCCCC(=O)*; γGlu = O=C(O)[C@H](CCC(=O)[*:2])N[*:1]; NMeI = CC[C@H](C)[C@H](NC)C(=O)O; Abu = CC[C@H](N)C(=O)O; Pentanoyl = CCCCC(=O)*; Aib = CC(C)(N)C(=O)O
Experiments:
[1] = Chemical stability in buffer (pH 7.4 / pH 4.5), % purity loss; assay type: physicochemical; details: 40° C. vs 5° C., 14 or 28 days; for Buffer stability pH 7.4 % purity loss: 100 mM phosphate buffer pH 7.4
Method in brief: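 LC-UV gave % loss after 14 or 28 days of storage at 5 °C or 40 °C. Samples were diluted supernatants from compound incubated 1 h at room temperature at 10 mg/mL target, in 100 mM acetate pH 4.5 or 100 mM phosphate pH 7.4.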

[2] = In vitro plasma stability, human plasma; assay type: in vitro ADME; parameters: dose or concentration left out as unconfirmed; details: Human PLM, 37° C.
[3] = target: T1, CFR1R receptor (Homo sapiens, UniProt P34998); assay: Activity at anti-target CFR1R receptor, cAMP assay in CRF1R-overexpression CHO-K1 cells; assay type: cell-based; details: 100% = Sauvagine at 100 nM; for EC50: cAMP
T1 construct: host or cells: CHO-K1 (clone 2)
T1 sequence (P34998 24-415): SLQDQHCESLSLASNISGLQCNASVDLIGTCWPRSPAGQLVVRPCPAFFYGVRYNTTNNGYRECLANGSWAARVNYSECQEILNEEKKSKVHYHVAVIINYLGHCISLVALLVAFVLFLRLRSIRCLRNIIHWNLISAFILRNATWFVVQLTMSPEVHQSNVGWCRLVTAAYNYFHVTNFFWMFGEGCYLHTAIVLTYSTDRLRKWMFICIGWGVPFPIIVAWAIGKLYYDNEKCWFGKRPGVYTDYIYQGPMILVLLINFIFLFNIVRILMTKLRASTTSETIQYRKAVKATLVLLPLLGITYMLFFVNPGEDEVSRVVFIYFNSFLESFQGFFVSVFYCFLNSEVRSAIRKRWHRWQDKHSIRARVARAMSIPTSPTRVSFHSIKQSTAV
Method in brief: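 Uses frozen stocks of CHO-K1 clone 2 cells overexpressing human CRF1R, plated at 4000 cells/well final, with cAMP measured by the same protocol as the TeloHAEC line. Full-activation control: 100 nM Sauvagine.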

[4] = In vitro plasma stability, minipig plasma; assay type: in vitro ADME; parameters: remaining at 2 h: dose or concentration left out as unconfirmed; details: pig, plasma; Minipig PLM, 37° C.
[5] = target: T2, human CRF2a receptor (Homo sapiens, UniProt Q13324); assay: Activity at human CRF2a receptor, cAMP functional assay in TeloHEAC cells; assay type: cell-based; details: TeloHEAC cells stably expressing human CRF2a receptor, relative to urocortin 2 (100 nM = 100%)
T2 construct: expressed in transfected cells; host or cells: TeloHEAC cells
T2 sequence (Q13324 1-411): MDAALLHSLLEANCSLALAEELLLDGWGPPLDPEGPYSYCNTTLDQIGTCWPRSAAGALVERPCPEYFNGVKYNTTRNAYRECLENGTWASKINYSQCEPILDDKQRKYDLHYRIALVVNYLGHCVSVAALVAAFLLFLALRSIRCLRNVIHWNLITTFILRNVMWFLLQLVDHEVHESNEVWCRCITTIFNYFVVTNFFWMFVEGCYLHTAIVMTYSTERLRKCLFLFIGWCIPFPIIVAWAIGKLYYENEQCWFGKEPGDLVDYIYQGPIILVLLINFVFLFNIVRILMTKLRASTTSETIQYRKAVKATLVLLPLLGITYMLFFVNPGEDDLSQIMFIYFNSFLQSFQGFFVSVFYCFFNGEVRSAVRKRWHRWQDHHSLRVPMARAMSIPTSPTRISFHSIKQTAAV
Method in brief: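 TeloHEAC cells stably expressing human CRF2a (10000 cells/well, suspended in HBSS/20 mM HEPES with 2 mM IBMX) were exposed to compounds for 30 min at 37 °C. cAMP was read as the 665/620 nm fluorescence ratio after 1 h at room temperature. EC50 was derived relative to 100 nM urocortin 2, set as 100%.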

[6] = test system: Sprague Dawley rats; assay: Effect on systolic blood pressure, telemetry in Sprague Dawley rats; assay type: in vivo, rat; details: 0.1 mg/kg SC; for Systolic blood pressure (Mean) % change from baseline, 8 h / Systolic blood pressure (Mean) % change from baseline, 12 h / Systolic blood pressure (Mean) % change from baseline, 24 h: n=2; for Duration of action: last time point with an effect on BP still observed
Method in brief: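 Values are % change from a 1 h pre-dose baseline in systolic pressure, tracked by telemetry for up to 48 hours after a single 0.1 mg/kg subcutaneous dose. Rats (Sprague Dawley, n=2 per peptide) carried aortic catheters and recovered at least 10 days post-surgery; duration of action marks the last time point still showing an effect.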

[7] = In vitro plasma stability, rat plasma; assay type: in vitro ADME; parameters: remaining at 2 h: dose or concentration left out as unconfirmed; details: male, Sprague Dawley, plasma; Rat PLM, 37° C.
Experimental: In vitro plasma metabolic stability was studied in male Sprague Dawley rats and human. Test compounds were incubated at 3 M for 2 hours at 37° C. At each time point (0, 0.25, 1 and 2 h), samples were prepared for analysis by means of a single step protein precipitation technique by adding 150 μL of ethanol, 0.1% formic acid to 50 μL aliquots of plasma. Samples were mixed by vortex for homogeneity and then subjected to centrifugation at 14000 rpm for 15 min. The supernatant (100 μL) was collected, diluted with 100 μL of water, 0.1% formic acid and analyzed by LC-HRMS (TripleTOF 6600+, AB Sciex). For each test compound, the area ratios at each time point were compared to the 0 h area ratio and converted to a percentage remaining.

[8] = target: T3, rat CRF2 a (Rattus norvegicus, UniProt P47866); assay: Activity at rat CRF2 a, cAMP assay in A7R5 rat aortic smooth muscle cells; assay type: cell-based; details: 0% HSA, 100% = Sauvagine at 100 nM
T3 construct: host or cells: A7R5 rat aortic smooth muscle cells
Experimental: The A7R5 rat aortic smooth muscle cell line used in this study was purchased from ATCC.
Cells were grown in a 10 cm dish at 37° C./5% CO2 in medium (DMEM/10% FBS) to near confluence. At that stage, cells were harvested, resuspended to 10 million/mL in culture medium and with 5% DMSO. 1 mL vial aliquots were slowly frozen to −80° C. in isopropanol and then transferred in liquid nitrogen for storage.
These vials were used to run the experiment following the procedure reported in the previous paragraph, except for the compound used in the control well to define the 100% activation (Sauvagine at 100 nM) and the cell density (final cell density: 5000 cells/well).

[9] = In vitro subcutaneous tissue supernatant (SCts) stability and metabolite identification, rat; assay type: in vitro ADME; parameters: remaining at 2 h: dose or concentration left out as unconfirmed; details: male, Sprague Dawley; rat subcutaneous tissue supernatant (SCts), 37° C, 2 h
[10] = Pharmacokinetics in male Sprague Dawley rats after subcutaneous administration; assay type: in vivo; details: plasma, rat
[11] = as above; assay type: in vivo; details: plasma, rat, SC, 0.1 mg/kg
[12] = Rat PLM; details: male Sprague Dawley rats, 37° C., up to 2 hours
[13] = Human PLM; details: 37° C., up to 2 hours

T3 sequence (P47866 27-431 isoform P47866-2 limits assumed): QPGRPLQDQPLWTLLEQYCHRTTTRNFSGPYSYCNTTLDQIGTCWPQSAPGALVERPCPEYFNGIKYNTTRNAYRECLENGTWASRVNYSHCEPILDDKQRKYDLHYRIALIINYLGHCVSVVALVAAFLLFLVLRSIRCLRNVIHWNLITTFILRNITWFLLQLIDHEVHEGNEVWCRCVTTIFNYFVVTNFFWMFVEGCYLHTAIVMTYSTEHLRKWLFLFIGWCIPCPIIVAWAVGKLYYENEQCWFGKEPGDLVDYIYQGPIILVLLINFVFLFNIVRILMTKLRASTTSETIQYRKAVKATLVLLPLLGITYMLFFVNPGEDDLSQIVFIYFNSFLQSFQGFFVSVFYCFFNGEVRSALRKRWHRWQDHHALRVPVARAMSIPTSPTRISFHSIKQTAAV

Buffer stability pH 7.4 % purity loss [1] | remaining at 2 h [2] | Emax (% I) [3] | EC50 [3] | remaining at 2 h [4] | EC50 [5] | remaining at 2 h [7] | Compound | Systolic blood pressure (Mean) % change from baseline, 8 h [6] | Systolic blood pressure (Mean) % change from baseline, 12 h [6] | Systolic blood pressure (Mean) % change from baseline, 24 h [6] | Duration of action [6] | further results
0/0 ^ % | 102% | 9 % I | > 250 nM | 97% | 0.12 nM | 73% | CC[C@H](NC(=O)[C@H](CC(N)=O)NC(=O)[C@@H](NC(=O)[C@H](CCC(=O)O)NC(=O)[C@H](C)NC(=O)[C@H](CCC(N)=O)NC(=O)[C@H](CCC(=O)O)NC(=O)[C@H](CCCNC(=N)N)NC(=O)[C@H](CCC(N)=O)NC(=O)[C@H](CCCCN)NC(=O)[C@H](CCCCN)NC(=O)[C@H](CCC(N)=O)NC(=O)[C@H](CCCCN)NC(=O)[C@H](CCC(=O)O)NC(=O)[C@H](CCC(N)=O)NC(=O)[C@H](CCC(=O)O)NC(=O)[C@H](CC(C)C)NC(=O)[C@H](CC(C)C)NC(=O)[C@@H](NC(=O)[C@H](CCCCN)NC(=O)[C@H](CCCCNC(=O)CC[C@H](NC(=O)CCCCCCCCCCCCCCC(=O)O)C(=O)O)NC(=O)[C@H](CC(C)C)NC(=O)[C@H](CCCCN)NC(=O)[C@@H](NC(=O)[C@@H]1CCCN1C(=O)[C@H](NC(=O)[C@H](CC(=O)O)NC(=O)[C@H](CC(C)C)NC(=O)[C@H](CO)NC(=O)[C@H](CC(C)C)NC(=O)[C@@H](NC(=O)[C@@H](NC(C)=O)[C@@H](C)CC)C(C)C)C(C)C)[C@@H](C)CC)[C@@H](C)CC)[C@@H](C)O)C(=O)N[C@@H](CCC(N)=O)C(=O)N[C@H](C(=O)N[C@@H](CC(C)C)C(=O)N[C@@H](C)C(=O)N[C@@H](CCC(N)=O)C(=O)N[C@H](C(N)=O)C(C)C)[C@@H](C)CC [compound 51] (Ac-IVLSLD[dV]PIKLK([γGlu-C16 diacid])KILLEQEKQKKQREQAETN[Abu]QILAQV-NH2) | −27% | −19% | −1% | 24 h | Buffer stability pH 4.5 % purity loss ([1]; 100 mM acetate buffer pH 4.5): 0/0 ^ %
0/nd ^ % | 101% | 10 % I | > 250 nM | 104% | 0.35 nM | 98% | CCCCC(=O)N[C@H](C(=O)N[C@@H](CC(C)C)C(=O)N[C@@H](CO)C(=O)N[C@@H](CC(C)C)C(=O)N[C@@H](CC(=O)O)C(=O)N[C@@H](C(=O)N1CCC[C@H]1C(=O)N[C@H](C(=O)N[C@@H](CCCCN)C(=O)N[C@@H](CC(C)C)C(=O)N[C@@H](CCCCNC(=O)CC[C@H](NC(=O)CCCCCCCCCCCCCCC(=O)O)C(=O)O)C(=O)N[C@@H](CCCCN)C(=O)N[C@H](C(=O)N[C@@H](CC(C)C)C(=O)N[C@@H](CC(C)C)C(=O)N[C@@H](CCC(=O)O)C(=O)N[C@@H](CCC(N)=O)C(=O)N[C@@H](CCC(=O)O)C(=O)N[C@@H](CCCCN)C(=O)N[C@@H](CCC(N)=O)C(=O)N[C@@H](CCCCN)C(=O)N[C@@H](CCCCN)C(=O)N[C@@H](CCC(N)=O)C(=O)N[C@@H](CCCNC(=N)N)C(=O)N[C@@H](CCC(=O)O)C(=O)N[C@@H](CCC(N)=O)C(=O)N[C@@H](C)C(=O)N[C@@H](CCC(=O)O)C(=O)N[C@H](C(=O)N[C@@H](CC(N)=O)C(=O)NC(C)(C)C(=O)N[C@@H](CCC(N)=O)C(=O)N[C@H](C(=O)N[C@@H](CC(C)C)C(=O)N[C@@H](C)C(=O)N[C@@H](CCC(N)=O)C(=O)N[C@H](C(N)=O)C(C)C)[C@@H](C)CC)[C@@H](C)O)[C@@H](C)CC)[C@@H](C)CC)C(C)C)C(C)C [compound 80] (Pentanoyl-VLSLD[dV]PIKLK([γGlu-C16 diacid])KILLEQEKQKKQREQAETN[Aib]QILAQV-NH2) |  |  |  |  | 
0.0/Not Tested % |  |  |  |  |  |  | CC[C@H](C)[C@H](NC)C(=O)N[C@H](C(=O)N[C@@H](CC(C)C)C(=O)N[C@@H](CO)C(=O)N[C@@H](CC(C)C)C(=O)N[C@@H](CC(=O)O)C(=O)N[C@@H](C(=O)N1CCC[C@H]1C(=O)N[C@H](C(=O)N[C@@H](CCCCN)C(=O)N[C@@H](CC(C)C)C(=O)N[C@@H](CCCCNC(=O)CC[C@H](NC(=O)CCCCCCCCCCCCCCCCC(=O)O)C(=O)O)C(=O)N[C@@H](CCCCN)C(=O)N[C@H](C(=O)N[C@@H](CC(C)C)C(=O)N[C@@H](CC(C)C)C(=O)N[C@@H](CCC(=O)O)C(=O)N[C@@H](CCC(N)=O)C(=O)N[C@@H](CCC(=O)O)C(=O)N[C@@H](CCCCN)C(=O)N[C@@H](CCC(N)=O)C(=O)N[C@@H](CCCCN)C(=O)NC(C)(C)C(=O)N[C@@H](CCC(N)=O)C(=O)N[C@@H](CCCNC(=N)N)C(=O)N[C@@H](CCC(=O)O)C(=O)N[C@@H](CCC(N)=O)C(=O)N[C@@H](C)C(=O)N[C@@H](CCC(=O)O)C(=O)N[C@H](C(=O)N[C@@H](CC(N)=O)C(=O)NC(C)(C)C(=O)N[C@@H](CCC(N)=O)C(=O)N[C@H](C(=O)N[C@@H](CC(C)C)C(=O)N[C@@H](C)C(=O)N[C@@H](CCC(N)=O)C(=O)N[C@H](C(N)=O)C(C)C)[C@@H](C)CC)[C@@H](C)O)[C@@H](C)CC)[C@@H](C)CC)C(C)C)C(C)C [compound 145] (H-[NMeI]VLSLD[dV]PIKLK([γGlu-C18 diacid])KILLEQEKQK[Aib]QREQAETN[Aib]QILAQV-NH2) | −23% | −21% | −14% | >24 h | EC50 [8]: 0.05 nM; remaining at 2 h [9]: 76%; AUC(0-t) ([10]; IV, 0.05 mg/kg): 4100 ng·h/mL; half-life ([10]; IV, 0.05 mg/kg): 5.8 h; Tmax ([10]; SC, 0.1 mg/kg): 8 h; AUC(0-t) [11]: 4200 ng·h/mL; Cmax [11]: 295 ng/mL
 |  |  |  |  |  |  | Ac-IVLSLDvPIKLK*KILLEQEKQKKQREQAETN4-PipQILAQV-NH2 |  |  |  |  | not cleaved [12]: 96% remaining at 2 hours; not cleaved [13]: 104% remaining at 2 hours

Reference: US20260001928A1 (CORTERIA PHARMACEUTICALS, priority 2022, published 2026)
